In PMC11392399, “The final walk with preptin” (PLOS ONE, 2024):

How the values were obtained:
[1] = test system: MIN6 pancreatic beta cells; test: Stimulation of insulin secretion, radioimmunoassay; assay type: cell-based, mouse; details: basal glucose 10 mmol/l, various, very high concentrations of preptin, 1 h at 37°C, RIA
Description: MIN6 cells were seeded at a density of 100 000 cells/well in 24-well culture dishes and grown for 3 days in 1 ml of complete medium. Before experiments, cells were maintained for 2 h in a glucose-free medium. Thereafter, the cells were washed twice and preincubated for 2 h at 37°C in 0.4 ml glucose-free Krebs-Ringer bicarbonate HEPES (KRBH) buffer of the following composition: 120 mM NaCl, 4.6 mM KCl, 2 mM CaCl2, 5 mM NaHCO3, 1 mM MgSO4, 0.4 mM KH2PO4, 0.15 mM Na2HPO4, BSA (0.2 % w/v), and 20 mM HEPES with pH value adjusted to 7.4 with NaOH. Next, the buffer was removed from cells and a new portion of 0.4 ml of glucose-free KRBH buffer, but with a respective concentration of glucose and/or preptin, was added to the cells, which were incubated for 1 h at 37°C. The cells were stimulated with various concentrations of D-glucose (0 and 10 mM) and the effects of various concentrations of mouse preptin were determined for 10 mM D-glucose concentration. After the stimulation, supernatants were collected from the cells and stored at −80°C before the measurement of insulin concentration.
Radioimmunoassay (RIA) kits for the measurement of rat insulin (sensitive Rat Insulin RIA Kit, Cat. # SRI-13K) content in samples were provided by EMD Millipore Corporation and were used according to the manufacturer’s instructions. Each biological sample was measured in duplicate.

hBMSC-TERT [2] = test: Osteoblast differentiation of hBMSC-TERT, alkaline phosphatase (ALP) activity assay; assay type: cell-based, human; details: summary in the conclusions
Description: (§1) hBMSC-TERT were plated at a density of 20 000 cells/cm^2 (Alizarin Red S staining) and 5 000 cells/well (ALP activity assay) in MEM medium (Gibco), supplemented with 10 % FBS (Gibco) and 1 % P/S (Gibco). One day after seeding, the medium was replaced with OB induction medium, composed of basal medium, supplemented with 10 mM B-glycerophosphate (Sigma-Aldrich), 10 nM dexamethasone (Sigma-Aldrich), 50 μg/mL vitamin C (Sigma-Aldrich), 10 nM vitamin D3 (Sigma-Aldrich) and treated with 100 ng/ml, 500 ng/ml and 1 ug/ml IGF2, IGF1, IGF2, preptin or vehicle (acetic acid) as a control. The medium was changed every other day for 7 days (ALP activity assay) or 10 days (Alizarin Red S staining).
ALP activity and cell viability assay were quantified at Day 7 of OB differentiation, in order to normalize the ALP activity data to the number of viable cells.
Cell viability assay was measured using a Cell Titer-Blue Assay Reagent (Promega) at fluorescence intensity (579Ex/584Em). ALP activity was detected by absorbance at 405 nm, using p-nitrophenyl phosphate (Sigma-Aldrich) as substrate.

hBMSC-TERT [3] = test: Osteoblast differentiation of hBMSC-TERT, Alizarin Red S staining; assay type: cell-based, human; details: increasing concentrations; day 10 of OB differentiation; compared to effects of IGF2 and preptin
Description: as §1
Mineralized matrix formation at Day 10 of OB differentiation was measured, using Alizarin Red S staining. Cells were fixed with 70 % ice-cold ethanol for 1 h at -20°C, before addition of Alizarin Red S Solution (AR-S) (Sigma-Aldrich). The cells were stained for 10 min at room temperature (RT). Excess dye was washed with distilled water and with phosphate buffered saline (PBS) (Gibco) to reduce nonspecific AR-S stain.

[4] = test system: human primary osteoblasts; details: 8 days, ref [17] Bosetti et al.; cited from earlier work
[5] = test system: intracellular calcium in U-2 OS osteoblasts; test: Changes in intracellular calcium, U-2 OS osteoblasts; assay type: cell-based, human; details: U-2 OS cells; 10^−4 M; Fluo-8 fluorescence, (Fmax−F0)/F0; one-way ANOVA
Description: The day before the experiment, U-2 OS, MC3T3-E1, MIN6 and cAMP-HEK cells were seeded 6 000 (for osteoblastic cell lines U-2 OS, MC3T3-E1), 10 000 (for cAMP-HEK cells) or 30 000 (MIN6) cells per well in a black 384-well format micro plate with transparent bottom (Cat.#: 142761, Nunc, Thermo Fisher Scientific, USA). On the next day, the cultivation media was exchanged for assay buffer, consisting of HBSS (Cat.#: H6648-500ML, Sigma-Aldrich, Merck, Germany), 20 mM HEPES (Cat.#: L0180-100, Biowest, France), 2.5 mM Probenecid (Cat.#: P8761, Sigma-Aldrich, Merck, Germany), adjusted for pH 7.4 and supplemented with 4.77 μM CalciFluor™ Fluo-8, AM (Cat.#: 1345980-40-6, Santa Cruz Biotechnology, USA). After 45 min incubation with assay buffer in 37°C and 5% CO2, the cells were incubated at RT in a dark place for another 15 minutes. After this time, preptin and its analogs were added by the Agilent Bravo Automated Liquid Handling Platform (Agilent Technologies, USA). The kinetics were measured by the Spark® multimode reader from Tecan (Tecan Group Ltd., Switzerland) for 10 min (approximately 45 cycles, excitation 485 nm, emission 535 nm, band width 10 nm). Before each kinetics, the background fluorescence (F0) was measured and the result was calculated as (Fmax−F0)/F0, where Fmax corresponds to the maximum response upon stimulation by the compounds. Each compound was tested in concentration 10^−4 M.

[6] = test system: mouse β-cell line βTC6-F7; details: permanent mouse β-cell line βTC6-F7; ref [8] Buchanan et al.; cited from earlier work
Text: Cheng et al. observed an increase in insulin secretion at a glucose concentration of 25 mmol/l and Buchanan et al. used 10 mmol/l.

## DVSTSQAVLPDDFPRYPVGKFFQYDTWRQSAGRL [peptide 14, native mouse preptin]
[1]
  stimulation of insulin secretion: did not observe a significant increase in insulin secretion

## IGF1: insulin-like growth factor 1, comparator hormone
hBMSC-TERT [2]
  osteoblast differentiation of hBMSCs: only significant changes observed for IGF1
hBMSC-TERT [3]
  Alizarin S staining of calcified matrix: largest changes
[4]
  change in ALP activity: only significant change in ALP activity

## DVSTSQAVLPDDFPRYPVGKFFKFDTWRQSAGRL [peptide 19, native rat preptin]
[5]
  changes in intracellular calcium relative to non-stimulated cells: significant increase in intracellular calcium levels
[6]
  increase of insulin secretion: able to increase insulin secretion
